{
  "source": "paper PMC6271500",
  "about": "“Bowman-Birk Protease Inhibitor from Vigna unguiculata Seeds Enhances the Action of Bradykinin-Related Peptides” (Molecules, 2014)",
  "key": {"[1]": {"test": "Cardiovascular effects of infusion of Bk and Bk-related peptides with BTCI or vehicle in anesthetized rats", "assay_type": "in vivo, male Wistar rats", "settings": "for aortic vasodilation (change in AVC) / change in mean arterial pressure (MAP) / renal vasodilation (change in RVC): from the baseline value, mean ± SEM, 6 experiments", "procedure": "All experiments were conducted on adult male Wistar rats (280–350 g). They were obtained from the central animal house of the Federal University of Goiás. Experimental procedures were designed with strict adherence to the National Health Institute Guidelines for Care and Use of Laboratory Animals as approved by the Ethics Committee, Federal University of Goiás (034/12).\nOn the day of experiments, the rats were anesthetized with halothane (2%–3% in 100% O2; Cristália Ltda, Itapira, SP, Brazil) prior to the catheterization of the right femoral vein and artery. After the catheter placement, the rats were removed from the halothane and the anesthesia was maintained with urethane (1.2 g·kg^−1 b.wt., i.v.; Sigma-Aldrich Co.). The trachea was cannulated to reduce airway resistance. The body temperature was kept at 37 ± 0.5 °C with a thermostatically controlled heated table.\nRenal blood flow (RBF) and aortic blood flow (ABF) were measured with an ultrasonic transit-time flowmeter (Transonic Systems, Inc., Ithaca, NY, USA). Data were recorded continuously with an analog-to-digital converter (PowerLab 4/25, ML845, AD Instruments, Bella Vista, Australia). Mean arterial pressure (MAP) was determined from the pulsatile signal. Aortic vascular conductance (AVC) and renal vascular conductance (RVC) were calculated by a ratio of ABF and RBF divided by MAP, and were expressed as percentage of baseline. Increasing doses of BTCI (0.3, 3, 30 and 300 µg·kg^−1, i.v.) were infused.\nResults are presented as means ± S.E.M. The effects of infusion of Bk, Bk-related peptides and BTCI on cardiovascular parameters were analyzed by one-way ANOVA. […] A value of Student’s t-test p < 0.05 was considered to denote a significant difference."}, "BTCI": {"system": "BTCI", "test": "Dynamic light scattering, BTCI-Bk complex formation", "assay_type": "binding, Vigna unguiculata", "procedure": "(§1) The hydrodynamic properties of the BTCI through the complex formation with Bk and analogues were monitored using DLS technique with laser source operated at 800 nm on the DynaPro LSR model (Wyatt Technology Corporation, Santa Barbara, CA, USA). The internal temperature was controlled by a Peltier system coupled to the detector. The Bk, Bk-related peptides, BTCI and BTCI-Bk, BTCI-Bk-related peptides complexes, were incubated for 30 minutes in 2 mM Tris-HCl pH 7.4 and then centrifuged at 5000 g and filtered ([…]) before the DLS experiments. The average of 100 acquisitions for each measure was considered for BTCI (25 µM) and synthetic Bk-related peptides (25 µM) separately and subsequently for the BTCI-Bk complexes (1:1). The formation of complexes was analyzed at 37 °C, considering the relationship of the scattered light intensity signal and the hydrodynamic diameter of the samples, using the Dynamics V6 program (Wyatt Technology Corporation)."}, "bovine chymotrypsin": {"system": "bovine chymotrypsin", "test": "Chymotrypsin inhibition by BTCI (GPNA substrate)", "assay_type": "biochemical", "settings": "BTCI 40 µM, peptide 0–10 µM", "procedure": "The inhibitory activities of BTCI against bovine pancreatic trypsin (25 kDa; A280^1% = 15.90) and chymotrypsin (24 kDa; A280^1% = 20.40) (Sigma Co.) were first determined in the absence of Bk and Bk-related peptides. Briefly, the residual enzymatic activities were assayed by mixing 40 µL of chymotrypsin (28.60 µM) or trypsin (2.57 µM) with BTCI at concentration range of 0–10 µM for trypsin and 0–40 µM for chymotrypsin at 25 °C for 15 minutes. After that, 200 µL of 0.40·mg·mL^−1 N-glutaryl-L-phenylalanine-p-nitroanilide (GPNA) in 50 mM Tris-HCl, 20 mM CaCl2, pH 7.6 for chymotrypsin assay or 0.43 mg·mL^−1 Nα-benzoyl-DL-arginine 4-nitroanilide hydrochloride (BAPNA) in 50 mM Tris-HCl, 20 mM CaCl2, pH 8.2 for trypsin assay were added. Substrate hydrolysis was done for 15 minutes and stopped by adding 30% (v/v) acetic acid. The enzymatic assays were also carried out in the presence of Bk at similar concentration of BTCI. The relative enzymatic activities were evaluated by the liberation of p-nitroanilide, which was monitored at 410 nm using a SpectraMax Plus 384 Microplate Reader spectrophotometer (Molecular Devices, Sunnyvale, CA, USA). The obtained values are an average of three independent measurements. Inhibition curves were obtained by plotting relative activities of the proteases vs. BTCI concentration in the absence or presence of Bk and Bk-related peptides. […]"}, "[2]": {"test": "Dynamic light scattering, free peptides and free BTCI", "assay_type": "physicochemical", "settings": "25 µM, 2 mM Tris-HCl pH 7.4, 37 °C", "procedure": "as §1"}, "[3]": {"system": "guinea pig (Cavia porcellus) ileum", "test": "Smooth muscle constriction force assay, guinea pig ileum", "procedure": "Male guinea pigs (Cavia porcellus) weighing between 200 and 300 g and fasted for 24 h were euthanized using an overdose of anesthetic at 120 mg/kg (ketamine and xylazine). The protocol was approved by the Committee on the Ethics of Animal Experiments of the Institute of Biology, University of Brasilia (Proc. Number 737402/2008). Segments of 2 cm from the terminal portion of the ileum were removed and washed in Tyrode’s solution (g/L: 8.00 NaCl,0.20 KCl, 0.20 CaCl2, 0.21 MgCl2), and attached to a glass rod that was immersed in a physiological bath chamber with a capacity of 10 mL containing Tyrode solution at 37 °C. In the opposite region, a thread of silk was attached to the F-60 isometric transducer connected to a polygraph (NARCO Bio-Systems, Houston, TX, USA). The bath was kept aerated constantly with carbogen (95% O2 + 5% CO2). Previously, as a control, smooth muscle response was analyzed using Bk from Sigma Aldrich. Experiments were done in triplicate, and constriction force was analyzed by addition of Bk and analogues in the absence or presence of BTCI, in three concentrations: 1, 5 or 10 µM. The hypotensive effects of the complexes were also evaluated in the presence of trypsin or chymotrypsin. After each experiment, the bath solution was exchanged three times in order to remove the drug used. Statistical analysis was carried out using the Paleontological Statistics (PAST) Software Package for Education and Data Analysis. A value of Student’s t-test p < 0.05 was considered to denote a significant difference."}, "[4]": {"settings": "peptide 120 µg·kg^−1 + BTCI 3 µg·kg^−1, i.v."}, "[5]": {"settings": "peptide 120 µg·kg^−1 i.v. + BTCI 3 µg·kg^−1 i.v."}, "[6]": {"settings": "peptide 120 µg·kg^−1 i.v., without BTCI"}},
  "data": [
    {"substance": "[Val]^1[Thr]^6-bradykinyl-Gln-Ser [Bk2]", "values": [
      {"measurement": "effect of association with BTCI on aortic vasodilation", "setting": "[1]; [4]", "result": "potentiated"},
      {"measurement": "effect of association with BTCI on renal vasodilation", "setting": "[1]; [4]", "result": "potentiated renal"},
      {"measurement": "aortic vasodilation (change in AVC)", "setting": "[1]; [5]", "result": "28% ± 2.6%"},
      {"measurement": "change in mean arterial pressure (MAP)", "setting": "[1]; [5]", "result": "−12 ± 2.7", "unit": "mmHg"},
      {"measurement": "renal vasodilation (change in RVC)", "setting": "[1]; [5]", "result": "29% ± 4.9%"},
      {"measurement": "aortic vasodilation (change in AVC)", "setting": "[1]; [6]", "result": "19% ± 2.7%"},
      {"measurement": "change in mean arterial pressure (MAP)", "setting": "[1]; [6]", "result": "−12 ± 1.2", "unit": "mmHg"},
      {"measurement": "renal vasodilation (change in RVC)", "setting": "[1]; [6]", "result": "19% ± 3.0%"},
      {"measurement": "polydispersity of peptide complexed with BTCI (in words)", "setting": "BTCI; 1:1 complex, pH 7.4, 37 °C", "result": "moderate polidispersity"},
      {"measurement": "hydrodynamic diameter of BTCI in the presence of peptide", "setting": "BTCI; BTCI 25 µM : peptide 25 µM (1:1), 30 min, 2 mM Tris-HCl pH 7.4, 37 °C", "result": "increased from 1.7 nm to 3.3 nm"},
      {"measurement": "effect of peptide on BTCI inhibition of chymotrypsin", "setting": "bovine chymotrypsin", "result": "did not interfer in their activities"},
      {"measurement": "polydispersity, peptide", "setting": "[2]", "result": "lower than 0.15"},
      {"measurement": "contraction force relative to Bk", "setting": "[3]; 10 µM, after activation by trypsin treatment", "result": "approximately 1.3 fold"},
      {"measurement": "smooth muscle contraction when pretreated with BTCI and serine proteases", "setting": "[3]; data not shown", "result": "did not induce muscle contraction"},
      {"measurement": "smooth muscle contraction", "setting": "[3]; free peptide, 1, 5, 10 µM, 37 °C, triplicate", "result": "unable to exert their contractive effects"},
      {"measurement": "smooth muscle contraction after trypsin pretreatment", "setting": "[3]; peptide pretreated with trypsin, 1.0, 5.0, 10.0 µM", "result": "induced smooth muscle contraction, in a concentration-responsive manner (Figure 7), and at higher levels than Bk in free state"}
    ]}
  ]
}
